Measured values as given in ChEMBL document CHEMBL1142112, “Antiproliferative xanthones of Terminalia calcicola from the Madagascar rain forest” (J Nat Prod, 2007).

Tested on: A2780
Experiment: Antiproliferative activity against human A2780 cells
Format: cell-based

SMILES	IC50 [µM]
CC(C)=CCc1c(O)c(O)cc2oc3c4c(cc(O)c3c(=O)c12)OC(C)(C)C=C4	8.1
CC(C)=CCc1c(O)ccc2oc3c(O)c4c(c(O)c3c(=O)c12)C=CC(C)(C)O4 [TERMICALCICOLANONE A]	40.6
